Results from PubChem BioAssay AID743505 (Broad Institute, 2014).
Activity calls are given as the source filed them.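 The calls were made as follows: active = dose curve with falling signal and an AC50 no higher than twice the top valid tested dose; inconclusive = flat curve with 30 to 70% inhibition, or a poor fit; inactive = rising signal, flat weak curve, or AC50 over that limit.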

molecular target: Melanocortin receptor 4 (Homo sapiens) (UniProt P32245); test: inhibition of alpha-MSH-driven MC4R cAMP reporter – cell-based, HEK293, luminescence, dry powder, counter-screen for LGR2 antagonist project, dose response (AID 743505); conditions: HEK293 MC4R CRE-luciferase, antagonist mode
Sequence (P32245 whole entry, looked up): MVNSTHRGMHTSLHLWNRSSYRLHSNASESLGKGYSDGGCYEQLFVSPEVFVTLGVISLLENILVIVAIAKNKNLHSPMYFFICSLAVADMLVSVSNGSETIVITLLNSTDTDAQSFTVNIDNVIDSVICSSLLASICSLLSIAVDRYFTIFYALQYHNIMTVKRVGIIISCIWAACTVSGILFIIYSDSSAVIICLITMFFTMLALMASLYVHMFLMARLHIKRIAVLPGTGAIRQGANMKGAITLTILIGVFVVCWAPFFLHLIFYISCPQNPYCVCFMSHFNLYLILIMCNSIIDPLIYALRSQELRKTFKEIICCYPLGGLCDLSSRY

Row | Compound | AC50
1 | C[C@H]1CCCCO[C@@H](CN(C)S(=O)(=O)c2ccc(Cl)cc2)[C@@H](C)CN([C@@H](C)CO)C(=O)c2cc(NC(=O)NC3CCCCC3)ccc2O1 | > 70 µM (inactive)
2 | C[C@@H]1CCCCO[C@@H](CN(C)C(=O)Nc2cccc3ccccc23)[C@H](C)CN([C@H](C)CO)C(=O)c2cc(NC(=O)C3CCCCC3)ccc2O1 | 7.91 µM
3 | C[C@@H]1CCCCO[C@H](CN(C)C(=O)Nc2cccc3ccccc23)[C@@H](C)CN([C@H](C)CO)C(=O)c2cc(NC(=O)C3CCCCC3)ccc2O1 | > 70 µM (inactive)
4 | C[C@@H]1CCCCO[C@@H](CN(C)C(=O)Nc2cccc3ccccc23)[C@H](C)CN([C@@H](C)CO)C(=O)c2cc(NC(=O)C3CCCCC3)ccc2O1 | > 70 µM (inactive)

same assay, conditions: HEK293 MC4R CRE-luciferase, antagonist mode, at 35 µM (top of the series)

Row | Compound | activity change, negative = inhibition
5 | C[C@H](CO)N1C[C@H](C)[C@H](CN(C)C(=O)Nc2cccc3ccccc23)OCCCC[C@H](C)Oc2ccc(NC(=O)c3ccccc3)cc2C1=O | inactive
6 | C[C@H]1CCCCO[C@H](CN(C)C(=O)Nc2cccc3ccccc23)[C@@H](C)CN([C@@H](C)CO)C(=O)c2cc(NC(=O)C3CCCCC3)ccc2O1 | inactive
7 | C[C@H]1CCCCO[C@@H](CN(C)C(=O)Nc2ccc(F)cc2)[C@@H](C)CN([C@@H](C)CO)C(=O)c2cc(NC(=O)C3CCCCC3)ccc2O1 | inactive
8 | C[C@H](CO)N1C[C@H](C)[C@H](CN(C)C(=O)Nc2cccc3ccccc23)OCCCC[C@H](C)Oc2ccc(NC(=O)NC3CCCCC3)cc2C1=O | inactive
9 | C[C@H](CO)N1C[C@H](C)[C@H](CN(C)C(=O)Nc2cccc3ccccc23)OCCCC[C@H](C)Oc2ccc(NC(=O)CCC(F)(F)F)cc2C1=O | inactive
10 | C[C@H](CO)N1C[C@H](C)[C@H](CN(C)C(=O)Nc2ccc(C(F)(F)F)cc2)OCCCC[C@H](C)Oc2ccc(NC(=O)NC3CCCCC3)cc2C1=O | inactive
11 | Cc1ccc(NC(=O)N(C)C[C@@H]2OCCCC[C@H](C)Oc3ccc(NC(=O)C4CCCCC4)cc3C(=O)N([C@H](C)CO)C[C@@H]2C)cc1 | inactive
12 | C[C@H](CO)N1C[C@H](C)[C@H](CN(C)C(=O)Nc2ccccc2)OCCCC[C@H](C)Oc2ccc(NC(=O)C3CCCCC3)cc2C1=O | inactive
13 | C[C@H](CO)N1C[C@H](C)[C@H](CN(C)C(=O)Nc2ccc(F)cc2)OCCCC[C@H](C)Oc2ccc(NC(=O)C3CCOCC3)cc2C1=O | inactive
14 | C[C@H](CO)N1C[C@H](C)[C@H](CN(C)C(=O)Nc2cccc(F)c2)OCCCC[C@H](C)Oc2ccc(NC(=O)C3CCCCC3)cc2C1=O | inactive
15 | C[C@H]1CCCCO[C@@H](CN(C)C(=O)Nc2ccc(C(F)(F)F)cc2)[C@@H](C)CN([C@@H](C)CO)C(=O)c2cc(NC(=O)CCC(F)(F)F)ccc2O1 | inactive
16 | C[C@H](CO)N1C[C@H](C)[C@H](CN(C)C(=O)Nc2ccc(F)cc2)OCCCC[C@H](C)Oc2ccc(NC(=O)C3CCC3)cc2C1=O | inactive
17 | C[C@H](CO)N1C[C@H](C)[C@H](CN(C)C(=O)Nc2ccccc2)OCCCC[C@H](C)Oc2ccc(NC(=O)NC3CCCCC3)cc2C1=O | inactive
18 | C[C@@H]1CCCCO[C@H](CN(C)C(=O)Nc2cccc3ccccc23)[C@H](C)CN([C@@H](C)CO)C(=O)c2cc(NC(=O)C3CCCCC3)ccc2O1 | inactive
19 | C[C@H]1CCCCO[C@@H](CN(C)C(=O)Nc2ccccc2)[C@@H](C)CN([C@@H](C)CO)C(=O)c2cc(NC(=O)NC3CCCCC3)ccc2O1 | inactive
20 | C[C@@H]1CCCCO[C@H](CN(C)C(=O)Nc2cccc3ccccc23)[C@@H](C)CN([C@@H](C)CO)C(=O)c2cc(NC(=O)C3CCCCC3)ccc2O1 | inactive
21 | CC(C)(C)c1ccc(-c2nc(-c3ccncc3)no2)cc1 | inactive
22 | C[C@H]1CCCCO[C@@H](CN(C)C(=O)Nc2ccc3c(c2)OCO3)[C@@H](C)CN([C@@H](C)CO)C(=O)c2cc(NC(=O)NC3CCCCC3)ccc2O1 | inactive
23 | C[C@H](CO)N1C[C@H](C)[C@H](CN(C)C(=O)Nc2ccc(F)cc2)OCCCC[C@H](C)Oc2ccc(NC(=O)C3CCCC3)cc2C1=O | inactive
24 | C[C@H](CO)N1C[C@H](C)[C@H](CN(C)C(=O)Nc2ccc(Cl)cc2)OCCCC[C@H](C)Oc2ccc(NC(=O)C3CCCCC3)cc2C1=O | inactive
25 | CC(=O)Nc1ccc2c(c1)C(=O)N([C@H](C)CO)C[C@H](C)[C@H](CN(C)C(=O)Nc1ccc(F)cc1)OCCCC[C@H](C)O2 | inactive
26 | COc1ccc(S(=O)(=O)N(C)C[C@@H]2OCCCC[C@H](C)Oc3ccc(NS(=O)(=O)c4ccc(F)cc4)cc3C(=O)N([C@@H](C)CO)C[C@@H]2C)cc1 | inactive
27 | C[C@H]1CCCCO[C@@H](CN(C)C(=O)Nc2cccc3ccccc23)[C@@H](C)CN([C@@H](C)CO)C(=O)c2cc(NC(=O)C3CCCCC3)ccc2O1 | inactive
28 | C[C@@H]1CN([C@H](C)CO)C(=O)c2cc(NC(=O)C3CCCCC3)ccc2O[C@@H](C)CCCCO[C@H]1CN(C)C(=O)Nc1cccc2ccccc12 | inactive

Row | Compound | activity change, negative = inhibition
29 | C[C@H](CO)N1C[C@H](C)[C@H](CN(C)C(=O)Nc2ccccc2)OCCCC[C@H](C)Oc2ccc(NC(=O)Nc3ccccc3)cc2C1=O | inactive
30 | C[C@@H]1CCCCO[C@@H](CN(C)C(=O)Nc2cccc3ccccc23)[C@@H](C)CN([C@H](C)CO)C(=O)c2cc(NC(=O)C3CCCCC3)ccc2O1 | inactive
31 | COc1ccc(NC(=O)N(C)C[C@@H]2OCCCC[C@H](C)Oc3ccc(NC(=O)NC4CCCCC4)cc3C(=O)N([C@H](C)CO)C[C@@H]2C)cc1 | inactive
32 | C[C@H](CO)N1C[C@H](C)[C@H](CN(C)C(=O)Nc2ccc(F)cc2)OCCCC[C@H](C)Oc2ccc(NC(=O)C3CCCCCC3)cc2C1=O | inactive
33 | C[C@H](CO)N1C[C@H](C)[C@H](CN(C)C(=O)Nc2ccc3ccccc3c2)OCCCC[C@H](C)Oc2ccc(NC(=O)C3CCCCC3)cc2C1=O | inactive
34 | C[C@H](CO)N1C[C@H](C)[C@H](CN(C)C(=O)Nc2ccccc2F)OCCCC[C@H](C)Oc2ccc(NC(=O)C3CCCCC3)cc2C1=O | inactive
35 | C[C@@H]1CN([C@@H](C)CO)C(=O)c2cc(NC(=O)C3CCCCC3)ccc2O[C@@H](C)CCCCO[C@H]1CN(C)C(=O)Nc1cccc2ccccc12 | inactive
36 | C[C@@H]1CCCCO[C@H](CN(C)C(=O)Nc2cccc3ccccc23)[C@H](C)CN([C@H](C)CO)C(=O)c2cc(NC(=O)C3CCCCC3)ccc2O1 | inactive
37 | C[C@H](CO)N1C[C@H](C)[C@@H](CN(C)C(=O)Nc2cccc3ccccc23)OCCCC[C@H](C)Oc2ccc(NC(=O)C3CCCCC3)cc2C1=O | inactive
38 | C[C@H](CO)N1C[C@H](C)[C@H](CN(C)C(=O)Nc2ccccc2)OCCCC[C@H](C)Oc2ccc(NC(=O)CCC(F)(F)F)cc2C1=O | inactive
39 | C[C@H](CO)N1C[C@H](C)[C@H](CN(C)C(=O)Nc2ccc(F)cc2)OCCCC[C@H](C)Oc2ccc(NC(=O)C3CCCCC3)cc2C1=O | inactive
40 | C[C@H](CO)N1C[C@H](C)[C@H](CN(C)C(=O)Nc2ccc(C(F)(F)F)cc2)OCCCC[C@H](C)Oc2ccc(NC(=O)CCC(F)(F)F)cc2C1=O | inactive
41 | C[C@H](CO)N1C[C@H](C)[C@H](CN(C)C(=O)Nc2ccc(F)cc2)OCCCC[C@H](C)Oc2ccc(NC(=O)Nc3ccccc3)cc2C1=O | inactive
42 | COc1ccc(NC(=O)N(C)C[C@@H]2OCCCC[C@H](C)Oc3ccc(NC(=O)C4CCCCC4)cc3C(=O)N([C@H](C)CO)C[C@@H]2C)cc1 | inactive
43 | C[C@H](CO)N1C[C@H](C)[C@H](CN(C)C(=O)Nc2cccc3ccccc23)OCCCC[C@H](C)Oc2ccc(NC(=O)C3CCCCC3)cc2C1=O | inactive
44 | C[C@H](CO)N1C[C@H](C)[C@H](CN(C)C(=O)Nc2ccc3c(c2)OCO3)OCCCC[C@H](C)Oc2ccc(NC(=O)C3CCCCC3)cc2C1=O | inactive
45 | C[C@H](CO)N1C[C@H](C)[C@H](CN(C)C(=O)Nc2ccc(F)cc2)OCCCC[C@H](C)Oc2ccc(NC(=O)C3CC3)cc2C1=O | inactive
46 | C[C@@H]1CN([C@H](C)CO)C(=O)c2cc(NC(=O)C3CCCCC3)ccc2O[C@@H](C)CCCCO[C@@H]1CN(C)C(=O)Nc1cccc2ccccc12 | inactive
47 | C[C@H](CO)N1C[C@H](C)[C@H](CN(C)C(=O)Nc2ccccc2)OCCCC[C@H](C)Oc2ccc(NC(=O)Nc3ccc4c(c3)OCO4)cc2C1=O | inactive
48 | C[C@H](CO)N1C[C@H](C)[C@H](CN(C)C(=O)Nc2ccc(F)cc2)OCCCC[C@H](C)Oc2ccc(NC(=O)NC3CCCCC3)cc2C1=O | inactive
49 | C[C@H](CO)N1C[C@H](C)[C@H](CN(C)C(=O)Nc2ccc3c(c2)OCO3)OCCCC[C@H](C)Oc2ccc(NC(=O)NC3CCCCC3)cc2C1=O | inactive
50 | C[C@H](CO)N1C[C@H](C)[C@H](CN(C)C(=O)Nc2ccc(F)cc2)OCCCC[C@H](C)Oc2ccc(NC(=O)Nc3ccc(F)cc3)cc2C1=O | inactive
51 | C[C@@H]1CN([C@@H](C)CO)C(=O)c2cc(NC(=O)C3CCCCC3)ccc2O[C@@H](C)CCCCO[C@@H]1CN(C)C(=O)Nc1cccc2ccccc12 | inactive
